Test system: SW1271 complex spheroids with HUVEC/MSC, growth, % test/control
Experiment: Anticancer human tumor SW1271 cell line growth inhibition [AhR];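 also: spheroids exposed to agents for 7 days before readout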
Details: for IC50: curve of first compound; for viability, T/C: stronger effect = lower value
Method in brief: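 Agents were dosed in half-log steps down from roughly clinical Cmax, or from 10 microM where Cmax was unknown, alone and with AhR antagonists. Read-out: percent test/control growth of tumor spheroids containing HUVEC and MSC stromal cells.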

CCc1c2c(nc3ccc(O)cc13)-c1cc3c(c(=O)n1C2)COC(=O)[C@]3(O)CC + Cc1cncc(-c2nc(NCCc3c[nH]c4ccccc34)c3ncn(C(C)C)c3n2)c1
IC50 (second compound 0.1 µM): > 300 nM | IC50 (second compound 0.316 µM): > 300 nM | IC50 (second compound 1 µM): 255 nM | IC50 (second compound 3.16 µM): 162 nM | IC50 (second compound 10 µM): 1.82 nM | viability, T/C (second compound 0.1 µM, first compound 0.000949 µM): 86.5% | viability, T/C (second compound 0.1 µM, first compound 0.003 µM): 92.8% | viability, T/C (second compound 0.1 µM, first compound 0.00949 µM): 76.6% | viability, T/C (second compound 0.1 µM, first compound 0.03 µM): 57.4% | viability, T/C (second compound 0.1 µM, first compound 0.0949 µM): 59.5% | viability, T/C (second compound 0.1 µM, first compound 0.3 µM): 57.8% | viability, T/C (second compound 0.316 µM, first compound 0.000949 µM): 69.5% | viability, T/C (second compound 0.316 µM, first compound 0.003 µM): 79.8% | viability, T/C (second compound 0.316 µM, first compound 0.00949 µM): 83% | viability, T/C (second compound 0.316 µM, first compound 0.03 µM): 58.1% | viability, T/C (second compound 0.316 µM, first compound 0.0949 µM): 52.2% | viability, T/C (second compound 0.316 µM, first compound 0.3 µM): 48.9% | viability, T/C (second compound 1 µM, first compound 0.000949 µM): 116% | viability, T/C (second compound 1 µM, first compound 0.003 µM): 104% | viability, T/C (second compound 1 µM, first compound 0.00949 µM): 71% | viability, T/C (second compound 1 µM, first compound 0.03 µM): 74.2% | viability, T/C (second compound 1 µM, first compound 0.0949 µM): 64.1% | viability, T/C (second compound 1 µM, first compound 0.3 µM): 50.3% | viability, T/C (second compound 3.16 µM, first compound 0.000949 µM): 92% | viability, T/C (second compound 3.16 µM, first compound 0.003 µM): 90.2% | viability, T/C (second compound 3.16 µM, first compound 0.00949 µM): 75.2% | viability, T/C (second compound 3.16 µM, first compound 0.03 µM): 63.6% | viability, T/C (second compound 3.16 µM, first compound 0.0949 µM): 60.8% | viability, T/C (second compound 3.16 µM, first compound 0.3 µM): 41.5% | viability, T/C (second compound 10 µM, first compound 0.000949 µM): 55.5% | viability, T/C (second compound 10 µM, first compound 0.003 µM): 45% | viability, T/C (second compound 10 µM, first compound 0.00949 µM): 37.2% | viability, T/C (second compound 10 µM, first compound 0.03 µM): 27.9% | viability, T/C (second compound 10 µM, first compound 0.0949 µM): 24% | viability, T/C (second compound 10 µM, first compound 0.3 µM): 25.9%

Nc1ccccc1NC(=O)c1ccc(CNC(=O)OCc2cccnc2)cc1 + Cc1cncc(-c2nc(NCCc3c[nH]c4ccccc34)c3ncn(C(C)C)c3n2)c1
IC50 (second compound 0.1 µM): 1890 nM | IC50 (second compound 0.316 µM): 1740 nM | IC50 (second compound 1 µM): 2490 nM | IC50 (second compound 3.16 µM): 1190 nM | IC50 (second compound 10 µM): < 31.6 nM | viability, T/C (second compound 0.1 µM, first compound 0.0316 µM): 94.7% | viability, T/C (second compound 0.1 µM, first compound 0.1 µM): 110% | viability, T/C (second compound 0.1 µM, first compound 0.316 µM): 95.5% | viability, T/C (second compound 0.1 µM, first compound 1 µM): 69.8% | viability, T/C (second compound 0.1 µM, first compound 3.16 µM): 34.3% | viability, T/C (second compound 0.1 µM, first compound 10 µM): 15.8% | viability, T/C (second compound 0.316 µM, first compound 0.0316 µM): 109% | viability, T/C (second compound 0.316 µM, first compound 0.1 µM): 104% | viability, T/C (second compound 0.316 µM, first compound 0.316 µM): 97.4% | viability, T/C (second compound 0.316 µM, first compound 1 µM): 62.9% | viability, T/C (second compound 0.316 µM, first compound 3.16 µM): 35.5% | viability, T/C (second compound 0.316 µM, first compound 10 µM): 17% | viability, T/C (second compound 1 µM, first compound 0.0316 µM): 121% | viability, T/C (second compound 1 µM, first compound 0.1 µM): 118% | viability, T/C (second compound 1 µM, first compound 0.316 µM): 88.9% | viability, T/C (second compound 1 µM, first compound 1 µM): 63.1% | viability, T/C (second compound 1 µM, first compound 3.16 µM): 51.9% | viability, T/C (second compound 1 µM, first compound 10 µM): 17.1% | viability, T/C (second compound 3.16 µM, first compound 0.0316 µM): 121% | viability, T/C (second compound 3.16 µM, first compound 0.1 µM): 107% | viability, T/C (second compound 3.16 µM, first compound 0.316 µM): 112% | viability, T/C (second compound 3.16 µM, first compound 1 µM): 52.8% | viability, T/C (second compound 3.16 µM, first compound 3.16 µM): 36% | viability, T/C (second compound 3.16 µM, first compound 10 µM): 16.7% | viability, T/C (second compound 10 µM, first compound 0.0316 µM): 44.2% | viability, T/C (second compound 10 µM, first compound 0.1 µM): 46.3% | viability, T/C (second compound 10 µM, first compound 0.316 µM): 35.3% | viability, T/C (second compound 10 µM, first compound 1 µM): 24% | viability, T/C (second compound 10 µM, first compound 3.16 µM): 18.3% | viability, T/C (second compound 10 µM, first compound 10 µM): 14.3%
